# Like-named read-outs stand apart in the source and are kept apart here.
# Assays:
# [1] = system: L. donovani HU3 strain in mouse peritoneal macrophages; experiment: Assay for proliferation of Leishmania parasites in infected mouse peritoneal macrophages (SybrGreen staining, high-content imaging, 5 days); type: cell-based, Leishmania donovani; details: L. donovani in mouse peritoneal macrophages, read-out: L. donovani Macrophage EC50
# [2] = system: Leishmania donovani axenic amastigote parasites; experiment: Leishmania donovani axenic amastigote proliferation assay (Cell TiterGlo luminescence, 2 day incubation); type: cell-based; details: Leishmania donovani, read-out: L. donovani amastigotes EC50
# [3] = system: Trypanosoma cruzi amastigotes (Tulahuen strain expressing Lac-Z) cultured in 3T3 fibroblast cells; experiment: microbe, parasite or virus in culture; type: cell-based; details: Trypanosoma cruzi, TULAHUEN, Fibroblast, T. cruzi amastigotes in 3T3 fibroblast cells; read-out: T cruzi EC50
# [4] = Leishmania donovani, Peritoneal macrophage, inhibition of proliferation
# [5] = axenic amastigotes, inhibition of proliferation
# [6] = Leishmania donovani, Peritoneal macrophage
"EC50 [1, 4] [nM]","EC50 [2, 5] [nM]",Compound,also measured
715,245,Cc1nc(C)c(C(=O)Nc2ccc(F)c(-c3cn4cc(NC(=O)OC(C)C)cnc4n3)c2)o1 [Compound 61],
11600,2000,Cc1nc(C(=O)Nc2ccc(F)c(-c3cn4cc(NC(=O)OC(C)C)cnc4n3)c2)c(C)o1 [Compound 62],
469,161,"CC(C)OC(=O)Nc1cnc2nc(-c3cc(NC(=O)c4ccc(Cl)o4)ccc3F)cn2c1 [Compound 64, isopropyl (2-(5-(5-chlorofuran-2-carboxamido)-2-fluorophenyl)imidazo[1,2-a]pyrimidin-6-yl)carbamate]",
9130,2040,CC(C)OC(=O)Nc1cnc2nc(-c3cc(NC(=O)c4cocn4)ccc3F)cn2c1 [Compound 65],
3230,1890,CC(C)OC(=O)Nc1cnc2nc(-c3cc(NC(=O)c4ccc[nH]4)ccc3F)cn2c1 [Compound 71],
8390,764,CC(C)OC(=O)Nc1cnc2nc(-c3cc(NC(=O)c4ccno4)ccc3F)cn2c1 [Compound 72],
15200,1290,CC(C)OC(=O)Nc1cnc2nc(-c3cc(NC(=O)c4cccn4C)ccc3F)cn2c1 [Compound 73],
> 50000,> 25000,CC(C)OC(=O)Nc1cnc2nc(-c3cc(NC(=O)c4cc5cc(Cl)ccc5[nH]4)ccc3F)cn2c1 [Compound 89],
24100,4610,CC(C)OC(=O)Nc1cnc2nc(-c3cc(NC(=O)c4cnc(Br)s4)ccc3F)cn2c1 [Compound 91],
> 50000,> 25000,CC(C)OC(=O)Nc1cnc2nc(-c3cc(NC(=O)c4cc5cccc(F)c5[nH]4)ccc3F)cn2c1 [Compound 93],
> 50000,> 25000,CC(C)OC(=O)Nc1cnc2nc(-c3cc(NC(=O)c4cnc(N)o4)ccc3F)cn2c1 [Compound 94],
188,69,Cc1ncc(C(=O)Nc2ccc(F)c(-c3cn4cc(NC(=O)OC(C)C)cnc4n3)c2)o1 [Compound 95],
9920,2980,CC(C)OC(=O)Nc1cnc2nc(-c3cc(NC(=O)c4ncco4)ccc3F)cn2c1 [Compound 99],
> 50000,> 25000,CC(C)OC(=O)Nc1cnc2nc(-c3cc(NC(=O)c4cnc(Cl)[nH]4)ccc3F)cn2c1 [Compound 100],
298,84,CC(C)OC(=O)Nc1cnc2nc(-c3cc(NC(=O)c4ccc(C#N)o4)ccc3F)cn2c1 [Compound 107],
,80,CC1=C(C(=O)Nc2cnc3nc(-c4cc(NC(=O)N5CCCC5)ccc4F)cn3c2)OCCO1 [Compound 122],
> 40300,7140,CC(C)OC(=O)NCc1cnc2nc(-c3cc(NC(=O)c4ccc(F)o4)ccc3F)cn2c1 [Compound 207],
2150,752,CC(C)OC(=O)Nc1cnc2nc(-c3cc(NC(=O)N(C)C)ccc3F)cn2c1 [Compound 219],
> 18300,6900,CCNC(=O)Nc1ccc(Cl)c(-c2cn3cc(NC(=O)OC(C)C)cnc3n2)c1 [Compound 254],
> 50000,> 25000,CC(=O)N[C@@H]1CCN(C(=O)Nc2ccc(Cl)c(-c3cn4cc(NC(=O)OC(C)C)cnc4n3)c2)C1 [Compound 271],
1900,862,CCN(CC)C(=O)Nc1ccc(Cl)c(-c2cn3cc(NC(=O)OC(C)C)cnc3n2)c1 [Compound 274],
321,141,CC(C)OC(=O)Nc1cnc2nc(-c3cc(NC(=O)N4CC(F)(F)C4)ccc3F)cn2c1 [Compound 289],
> 43500,> 25000,CC(C)OC(=O)Nc1cnc2nc(-c3cc(NC(=O)N4CC(S(C)(=O)=O)C4)ccc3F)cn2c1 [Compound 292],
> 50000,> 25000,CC(C)OC(=O)Nc1cnc2nc(-c3cc(NC(=O)N4CCC4C(=O)O)ccc3F)cn2c1 (centres unmarked) [Compound 295],
2120,707,CC(C)OC(=O)Nc1ccc(-c2cnc3nc(-c4cc(NC(=O)N5CCCC5)ccc4F)cn3c2)cc1 [Compound 340],
> 50000,> 25000,Cc1nc(C)c(C(=O)Nc2ccc(F)c(-c3cn4cc(-c5cnoc5)cnc4n3)c2)o1 [Compound 367],

# More lines, now with the values behind:
Compound,"EC50 [1, 4] [nM]","EC50 [2, 5] [nM]",also measured
CC(C)OC(=O)Nc1cnc2nc(-c3cccc(NC(=O)N4CCCC4)c3)cn2c1 [Compound 5],4000,1080,
CC(C)OC(=O)Nc1cnc2nc(-c3cccc(NC(=O)c4cnccn4)c3)cn2c1 [Compound 7],1860,2530,
CC(C)OC(=O)Nc1cnc2nc(-c3cccc(NC(=O)c4ccco4)c3)cn2c1 [Compound 8],4700,1590,
CON(C)C(=O)Nc1cccc(-c2cn3cc(NC(=O)OC(C)C)cnc3n2)c1 [Compound 14],,,EC50 ([1]; inhibition of proliferation): 3200 nM
"CC(C)OC(=O)Nc1cnc2nc(-c3cc(NC(=O)N4CCCC4)ccc3Cl)c(F)n2c1 [Compound 15, isopropyl (2-(2-chloro-5-(pyrrolidine-1-carboxamido)phenyl)-3-fluoroimidazo[1,2-a]pyrimidin-6-yl)carbamate]",2950,1500,
CC(C)OC(=O)Nc1cnc2nc(-c3cc(NC(=O)N4CCCC4)ccc3F)cn2c1 [Compound 17],350,410,
"CC(C)OC(=O)Nc1cnc2nc(-c3cc([N+](=O)[O-])ccc3F)cn2c1 [Compound 19, isopropyl (2-(2-fluoro-5-nitrophenyl)imidazo[1,2-a]pyrimidin-6-yl)carbamate]",46900,19100,
COCCOC(=O)Nc1cccc(-c2cn3cc(NC(=O)OC(C)C)cnc3n2)c1 [Compound 23],24700,7300,
O=C(Nc1ccc(Cl)c(-c2cn3cc(-c4ccccc4)cnc3n2)c1)N1CCCC1 [Compound 29],152,36,
CNc1ccc(-c2cnc3nc(-c4cc(NC(=O)OCCOC)ccc4Cl)cn3c2)cc1 [Compound 36],1280,560,
CN(CC(F)(F)F)C(=O)Nc1ccc(F)c(-c2cn3cc(-c4ccccc4)cnc3n2)c1 [Compound 325],722,154,
O=C(Nc1ccc(F)c(-c2cn3cc(-c4ccnc(C(F)(F)F)c4)cnc3n2)c1)N1CCCC1 [Compound 341],9430,2600,
"COC(=O)CN1CCC(c2cnc3nc(-c4cc(NC(=O)c5oc(C)nc5C)ccc4F)cn3c2)CC1 [Compound 539, methyl 2-(4-(2-(5-(2,4-dimethyloxazole-5-carboxamido)-2-fluorophenyl)imidazo[1,2-a]pyrimidin-6-yl)piperidin-1-yl)acetate]",,,EC50 [3]: 381 nM; EC50 ([2]; L. donovani axenic amastigotes): 975 nM
"O=C(Nc1ccc(F)c(-c2cn3cc(C(F)(F)F)cnc3n2)c1)N1CC(F)C1 [Compound 587, 3-fluoro-N-(4-fluoro-3-(6-(trifluoromethyl)imidazo[1,2-a]pyrimidin-2-yl)phenyl)azetidine-1-carboxamide]",,,"EC50 [1, 6]: 647 nM; EC50 ([2]; L. donovani axenic amastigotes): 73 nM"
Cc1nc(C)c(C(=O)Nc2ccc(F)c(-c3cn4cc(-c5ncccc5C(F)F)cnc4n3)c2)o1 [Compound 588],,,"EC50 [1, 6]: 459 nM; EC50 ([2]; L. donovani axenic amastigotes): 19 nM"
Cc1nc(C)c(C(=O)Nc2ccc(F)c(-c3cn4cc(-c5ncccc5C(F)(F)F)cnc4n3)c2)o1 [Compound 589],,,"EC50 [1, 6]: 375 nM; EC50 ([2]; L. donovani axenic amastigotes): 22 nM"
"Cc1nc(C)c(C(=O)Nc2ccc(F)c(-c3cn4cc(CC(C)C)cnc4n3)c2)o1 [Compound 590, N-(4-fluoro-3-(6-isobutylimidazo[1,2-a]pyrimidin-2-yl)phenyl)-2,4-dimethyloxazole-5-carboxamide]",,,"EC50 [1, 6]: 45 nM; EC50 ([2]; L. donovani axenic amastigotes): 24 nM"
Cc1nc(C)c(C(=O)Nc2ccc(F)c(-c3cn4cc(CC(C)(C)C)cnc4n3)c2)o1 [Compound 591],,,"EC50 [1, 6]: > 50000 nM; EC50 ([2]; L. donovani axenic amastigotes): 28 nM"
"Cc1nc(C)c(C(=O)Nc2ccc(F)c(-c3cn4cc(CC5CCC5)cnc4n3)c2)o1 [Compound 613, N-(3-(6-(cyclobutylmethyl)imidazo[1,2-a]pyrimidin-2-yl)-4-fluorophenyl)-2,4-dimethyloxazole-5-carboxamide]",,,"EC50 [1, 6]: > 50000 nM; EC50 ([2]; L. donovani axenic amastigotes): 30 nM"
Cc1nc(C)c(C(=O)Nc2ccc(F)c(-c3cn4cc(CC5OCCO5)cnc4n3)c2)o1 [Compound 614],,,"EC50 [1, 6]: > 50000 nM; EC50 ([2]; L. donovani axenic amastigotes): 389 nM"
Cc1nc(C)c(C(=O)Nc2ccc(F)c(-c3cn4cc(C5C6CCCC5C6)cnc4n3)c2)o1 (centres unmarked) [Compound 615],,,EC50 ([2]; L. donovani axenic amastigotes): 82 nM
"Cc1nc(C)c(C(=O)Nc2ccc(F)c(-c3cn4cc(CN5CCOCC5)cnc4n3)c2)o1 [Compound 616, N-(4-fluoro-3-(6-(morpholinomethyl)imidazo[1,2-a]pyrimidin-2-yl)phenyl)-2,4-dimethyloxazole-5-carboxamide]",,,"EC50 [1, 6]: > 50000 nM; EC50 ([2]; L. donovani axenic amastigotes): 602 nM"
Cc1nc(C)c(C(=O)Nc2ccc(F)c(-c3cn4cc(CN(C)C)cnc4n3)c2)o1 [Compound 617],,,EC50 ([2]; L. donovani axenic amastigotes): 3440 nM
"Cc1nc(C)c(C(=O)Nc2ccc(F)c(-c3cn4cc(C(C)N5CCOCC5)cnc4n3)c2)o1 (centres unmarked) [Compound 618, N-(4-fluoro-3-(6-(1-morpholinoethyl)imidazo[1,2-a]pyrimidin-2-yl)phenyl)-2,4-dimethyloxazole-5-carboxamide]",,,"EC50 [1, 6]: 691 nM; EC50 ([2]; L. donovani axenic amastigotes): 903 nM"
Cc1nc(C)c(C(=O)Nc2ccc(F)c(-c3cn4cc(C(C)N(C)C)cnc4n3)c2)o1 (centres unmarked) [Compound 619],,,"EC50 [1, 6]: 929 nM; EC50 ([2]; L. donovani axenic amastigotes): 6350 nM"

# From patent publication US20160045505A1, “COMPOUNDS AND COMPOSITIONS FOR THE TREATMENT OF PARASITIC DISEASES” (NOVARTIS AG, priority 2013, published 2016)
